Assay results as given in DBAASP.
Values after ≈ are worked out from the molar mass of the structure shown.

What was measured:
Assay in all cases: ≥ marks a high value that may be exact or a test limit, other limits are often not marked, values filed in µg/mL are converted to µM
[1] = test system: Escherichia coli ATCC 25922
[2] = test system: Staphylococcus epidermidis ATCC 35984
[3] = test system: Staphylococcus aureus USA 300
[4] = test system: Bacillus subtilis ATCC 23857
[5] = test system: Salmonella enterica subsp. enterica serovar Typhi ATCC 6399
[6] = test system: Bacillus subtilis ATCC 6633
Streptococcus agalactiae = test system: Streptococcus agalactiae
[7] = test system: Listeria monocytogenes ATCC 7644
[8] = test system: Staphylococcus aureus ATCC 25923
Shigella flexneri = test system: Shigella flexneri
[9] = test system: Bacillus subtilis VKM B-501
[10] = test system: Escherichia coli DSM 1116
[11] = test system: Pseudomonas aeruginosa PAO1
[12] = test system: Bacillus subtilis subsp. spizizenii DSM 347
[13] = test system: Acinetobacter sp. DSM 586
[14] = test system: Saccharomyces cerevisiae Y190
[15] = test system: Escherichia coli DH5alpha
Escherichia coli MH1 = test system: Escherichia coli MH1
[16] = test system: Staphylococcus xylosus DSM 20267
[17] = test system: Arthrobacter globiformis VKM Ac-1112
[18] = test system: Bacillus subtilis IFO 3513
[19] = test system: Staphylococcus aureus IFO 12732
[20] = test system: Escherichia coli IFO 12734
[21] = test system: Pseudomonas aeruginosa ATCC 27853
[22] = test system: Staphylococcus aureus ATCC 33591
[23] = test system: Xanthomonas arboricola pv. pruni CFBP 5563
[24] = test system: Xanthomonas campestris pv. Vesicatoria 2133-2
[25] = test system: Pseudomonas syringae pv. syringae EPS 94
[26] = test system: Pseudomonas syringae pv. actinidiae Psa3700.1.1
[27] = test system: Xanthomonas fragariae Xf349-9A
[28] = test system: Erwinia amylovora PMV 6076
Escherichia coli K-12 = test system: Escherichia coli K-12

CC[C@H](C)[C@H](NC(=O)[C@H](C)NC(=O)[C@@H](N)CCSC)C(=O)N[C@H](C(=O)NCC(=O)N[C@H](C(=O)N[C@H](C(=O)N[C@H](C(=O)N[C@@H](CCCCN)C(=O)N[C@H](C(=O)N[C@H](C(=O)N[C@@H](CCCCN)C(=O)N[C@@H](C)C(=O)N[C@H](C(=O)N[C@H](C(=O)N[C@@H](CC(=O)O)C(=O)N[C@H](C(=O)N[C@@H](Cc1ccccc1)C(=O)N[C@@H](C)C(=O)N[C@@H](CCCCN)C(=O)O)[C@@H](C)CC)[C@@H](C)CC)[C@@H](C)CC)[C@@H](C)CC)[C@@H](C)CC)[C@@H](C)CC)[C@@H](C)CC)[C@@H](C)O)C(C)C [MAIVGTIIKIIKAIIDIFAK]
MIC [1]: > 128 µM
MIC [2]: ≥ 64 µM
MIC [3]: ≥ 64 µM
MIC [4]: ≥ 128 µM

CC[C@H](C)[C@H](NC(=O)[C@H](CC(C)C)NC(=O)[C@H](CCCCN)NC(=O)[C@H](CC(C)C)NC(=O)[C@H](C)NC(=O)CNC(=O)[C@H](CCCCN)NC(=O)[C@H](C)NC(=O)[C@H](CC(C)C)NC(=O)[C@H](C)NC(=O)CNC(=O)[C@H](Cc1c[nH]c2ccccc12)NC(=O)[C@@H](N)Cc1ccccc1)C(=O)N[C@H](C(=O)NCC(=O)N[C@@H](CO)C(=O)N[C@@H](CC(C)C)C(=O)N[C@@H](Cc1ccccc1)C(=O)N[C@@H](CO)C(=O)N[C@@H](CO)C(=O)N[C@@H](Cc1ccccc1)C(=O)N[C@@H](CO)C(=O)N[C@@H](CCCCN)C(=O)N[C@@H](CCCCN)C(=O)N[C@@H](CC(=O)O)C(=O)O)C(C)C [FWGALAKGALKLIVGSLFSSFSKKD]
MIC [1]: 300 µM (≈ 801 µg/mL)
MIC [5]: ≥ 300 µM
MIC [6]: ≥ 300 µM
MIC (Streptococcus agalactiae): ≥ 300 µM
MIC [7]: ≥ 300 µM
MIC [8]: 300 µM (≈ 801 µg/mL)
MIC (Shigella flexneri): ≥ 300 µM

CC[C@H](C)[C@H](NC(=O)[C@H](CC(C)C)NC(=O)[C@H](CCCCN)NC(=O)[C@H](CC(C)C)NC(=O)[C@H](C)NC(=O)CNC(=O)[C@H](CCCCN)NC(=O)[C@H](C)NC(=O)[C@H](CC(C)C)NC(=O)[C@H](C)NC(=O)CNC(=O)[C@H](Cc1c[nH]c2ccccc12)NC(=O)[C@@H](N)Cc1ccccc1)C(=O)NCC(=O)N[C@H](C(=O)N[C@@H](CO)C(=O)N[C@@H](CC(C)C)C(=O)N[C@@H](Cc1ccccc1)C(=O)N[C@@H](CO)C(=O)N[C@@H](CO)C(=O)N[C@@H](Cc1ccccc1)C(=O)N[C@@H](CO)C(=O)N[C@@H](CCCCN)C(=O)N[C@@H](CCCCN)C(=O)N[C@@H](CC(=O)O)C(=O)O)C(C)C [FWGALAKGALKLIGVSLFSSFSKKD]
MIC [1]: 300 µM (≈ 801 µg/mL)
MIC [5]: ≥ 300 µM
MIC [6]: ≥ 300 µM
MIC (Streptococcus agalactiae): ≥ 300 µM
MIC [7]: ≥ 300 µM
MIC [8]: 300 µM (≈ 801 µg/mL)
MIC (Shigella flexneri): ≥ 300 µM

CSCC[C@H](NC(=O)CNC(=O)[C@H](CO)NC(=O)[C@H](Cc1c[nH]c2ccccc12)NC(=O)[C@H](CCSC)NC(=O)[C@@H](N)CO)C(=O)N[C@@H](Cc1c[nH]c2ccccc12)C(=O)N[C@@H](CCCN=C(N)N)C(=O)N[C@@H](CCCN=C(N)N)C(=O)N[C@@H](CCCCN)C(=O)N[C@@H](CC(C)C)C(=O)N[C@@H](CCCCN)C(=O)N[C@@H](CCCCN)C(=O)N[C@@H](CC(C)C)C(=O)N[C@@H](CCCN=C(N)N)C(=O)N[C@@H](CC(N)=O)C(=O)N[C@@H](C)C(=O)N[C@@H](CC(C)C)C(=O)N[C@@H](CCCCN)C(=O)N[C@@H](CCCCN)C(=O)N[C@@H](CCCCN)C(=O)N[C@@H](CC(C)C)C(=O)N[C@@H](CCCCN)C(=O)NCC(=O)N[C@@H](CCC(=O)O)C(=O)O [SMWSGMWRRKLKKLRNALKKKLKGE]
MIC [9]: 1 µM (≈ 3.07 µg/mL)
MIC [10]: 1.3 µM (≈ 4 µg/mL)
MIC [11]: 4.1 µM (≈ 12.6 µg/mL)
MIC [12]: 1.3 µM (≈ 4 µg/mL)
MIC [13]: 1.3 µM (≈ 4 µg/mL)
MIC [14]: ≥ 33 µM
MIC [15]: 1 µM (≈ 3.07 µg/mL)
MIC (Escherichia coli MH1): 0.7 µM (≈ 2.15 µg/mL)
MIC [16]: 1.3 µM (≈ 4 µg/mL)
MIC [17]: 0.5 µM (≈ 1.54 µg/mL)

CC[C@H](C)[C@H](N)C(=O)N[C@@H](CC(C)C)C(=O)N1CCC[C@H]1C(=O)N[C@@H](Cc1c[nH]c2ccccc12)C(=O)N[C@@H](CCCCN)C(=O)N[C@@H](CC(C)C)C(=O)N1CCC[C@H]1C(=O)N[C@@H](Cc1c[nH]c2ccccc12)C(=O)N[C@@H](Cc1c[nH]c2ccccc12)C(=O)N1CCC[C@H]1C(=O)N[C@@H](Cc1c[nH]c2ccccc12)C(=O)N[C@@H](CCCN=C(N)N)C(=O)N[C@@H](CCCN=C(N)N)C(N)=O [ILPWKLPWWPWRR]
MIC [18]: 1.71 µM (≈ 3.13 µg/mL)
MIC [19]: 0.851 µM (≈ 1.56 µg/mL)
MIC [20]: 13.6 µM (≈ 25 µg/mL)

CC[C@H](C)[C@H](N)C(=O)N[C@@H](CC(C)C)C(=O)N1CCC[C@H]1C(=O)N[C@@H](CCCCN)C(=O)N[C@@H](CCCCN)C(=O)N[C@@H](Cc1c[nH]c2ccccc12)C(=O)N1CCC[C@H]1C(=O)N[C@@H](CCCCN)C(=O)N[C@@H](CC(C)C)C(=O)N1CCC[C@H]1C(=O)N[C@@H](Cc1c[nH]c2ccccc12)C(=O)N[C@@H](CCCN=C(N)N)C(=O)N[C@@H](CCCN=C(N)N)C(N)=O [ILPKKWPKLPWRR]
MIC [18]: 1.82 µM (≈ 3.13 µg/mL)
MIC [19]: 3.64 µM (≈ 6.25 µg/mL)
MIC [20]: 29.1 µM (≈ 50 µg/mL)

CC[C@H](C)[C@H](NC(=O)CN)C(=O)NCC(=O)N[C@@H](CCCCN)C(=O)N[C@@H](Cc1ccccc1)C(=O)N[C@@H](CC(C)C)C(=O)N[C@@H](CCCCN)C(=O)N[C@@H](CCCCN)C(=O)N[C@@H](C)C(=O)N[C@@H](CCCCN)C(=O)N[C@@H](CCCCN)C(=O)N[C@@H](Cc1ccccc1)C(N)=O [GIGKFLKKAKKF]
MIC [21]: 4.15 µM (≈ 5.65 µg/mL)
MIC [2]: ≥ 33.2 µM
MIC [8]: 375 µM (≈ 512 µg/mL)
MIC [22]: ≥ 375 µM

CC(C)C[C@H](NC(=O)[C@H](CCCN=C(N)N)NC(=O)[C@H](CC(N)=O)NC(=O)[C@H](CCCCN)NC(=O)[C@H](CCC(=O)O)NC(=O)[C@H](CCC(=O)O)NC(=O)[C@H](CCC(=O)O)NC(=O)[C@@H](NC(=O)[C@H](CC(C)C)NC(=O)[C@H](CCCCN)NC(=O)[C@@H](NC(=O)[C@H](CCCCN)NC(=O)[C@H](CCCCN)NC(=O)[C@@H](N)[C@@H](C)O)[C@@H](C)O)[C@@H](C)O)C(N)=O [TKKTKLTEEEKNRL]
MIC [23]: ≥ 50 µM
MIC [24]: ≥ 50 µM
MIC [25]: ≥ 50 µM
MIC [26]: ≥ 50 µM
MIC [27]: ≥ 50 µM
MIC [28]: ≥ 50 µM

CSCC[C@H](NC(=O)[C@H](CO)NC(=O)[C@H](CCCCN)NC(=O)[C@H](Cc1c[nH]c2ccccc12)NC(=O)[C@@H](N)CO)C(=O)N[C@@H](C)C(=O)N[C@@H](CCCCN)C(=O)N[C@@H](CCCCN)C(=O)N[C@@H](CC(C)C)C(=O)N[C@@H](CCCCN)C(=O)N[C@@H](CCC(=O)O)C(=O)N[C@@H](Cc1ccc(O)cc1)C(=O)N[C@@H](CCSC)C(=O)N[C@@H](CCC(=O)O)C(=O)N[C@@H](CCCCN)C(=O)N[C@@H](CC(C)C)C(=O)N[C@@H](CCCCN)C(=O)N[C@@H](CCC(N)=O)C(=O)N[C@@H](CCCNC(=N)N)C(=O)N[C@@H](C)C(=O)O [SWKSMAKKLKEYMEKLKQRA]
MIC [1]: 40.3 µM (≈ 100 µg/mL)
MIC (Escherichia coli K-12): ≥ 100 µM
MIC [9]: 1.2 µM (≈ 2.98 µg/mL)
MIC [10]: 3.22 µM (≈ 8 µg/mL)
MIC [11]: > 40 µM
MIC [12]: 6.44 µM (≈ 16 µg/mL)
MIC [13]: 3.22 µM (≈ 8 µg/mL)
MIC [14]: 20 µM (≈ 49.7 µg/mL)
MIC [3]: ≥ 100 µM
MIC [8]: 33.8 µM (≈ 84 µg/mL)
MIC [15]: 2.5 µM (≈ 6.21 µg/mL)
MIC (Escherichia coli MH1): 6 µM (≈ 14.9 µg/mL)
MIC [16]: 3.22 µM (≈ 8 µg/mL)
MIC [17]: 0.3 µM (≈ 0.745 µg/mL)
